Experimental data published in patent US20110014294A1, “STIMULATION OF OCULAR RETROBULBAR BLOOD FLOW USING OCULAR IRRITANTS” (PHARMALIGHT INC., priority 2008, published 2011).

Key:
[1] = tested on: retrobulbar blood flow; assay: Effect of benzalkonium chloride compositions on retrobulbar blood flow (Example 2); assay type: in vivo; conditions: benzalkonium chloride (0.01%, 0.05, 0.1%, 0.2% in isotonic PBS pH 7.4), sufficient amount, as a mist; animals
Experimental: The effect of compositions including benzalkonium chloride administered in accordance with the teachings herein is performed substantially as described in Example 1. Specifically, four isotonic PBS compositions having pH of 7.4 are prepared having 0.01%, 0.05, 0.1% and 0.2% benzalkonium chloride, respectively, as an ocular irritant.
The compositions are administered to animals and the effect on retrobulbar blood flow is determined, substantially as described above.

[2] = tested on: eye; assay: Discomfort and irritation of animals after benzalkonium chloride compositions (Example 2); assay type: in vivo

Substance: benzalkonium chloride
- Effect on retinal blood flow [1]: substantial increase in retinal blood flow
- Discomfort and irritation ([2]; benzalkonium chloride composition as a mist): little or no substantial discomfort and irritation
- Discomfort and irritation ([2]; benzalkonium chloride composition as drops): cause discomfort and irritation
